# Reference: US10519151B2, “Substituted [1,2,4]triazolo[4,3-A]pyridines, their preparation and their use as pharmaceuticals” (NEOMED Institute, priority 2016, dated 2019)
# System: human C-Myc gene transcription in MV-4-11 cells
# Assay: Transcription of human C-Myc in human leukemic MV-4-11 cells (QuantiGene 2.0 assay)
# Type: cell-based
# Settings: MV4-11, 4 hours treatment, C-Myc mRNA by QuantiGene 2.0, read-out: IC50 (inhibition of C-Myc transcription)
# Experimental: Transcription of Human C-Myc in Human Leukemic MV-4-11 Cells
# The effect of compounds on transcription of human C-Myc gene is monitored in human B-myelomonocytic leukemia cell line MV-4-11 (from American Type Culture Collection (ATCC), Manassas, Va., USA) using QuantiGene 2.0 assay kit (Affymetrix, Santa Clara, Calif., USA).
# Typically, 8,000 MV-4-11 cells are plated in sterile 96-well plates (Costar #3598 from Fisher Scientific Canada, Ottawa, Ontario, Canada) in Iscove's medium supplemented with 10% fetal bovine serum, glutamine (2 mM), and penicillin (100 I.U.) and streptomycin (100 μg/mL) (all from Wisent Inc., St. Bruno, Quebec, Canada). Compounds are dissolved in DMSO at 30 mM. A series of 1:3 dilutions are first made in DMSO, and further […] dilutions are made in serum-containing cell culture media. The final concentration of DMSO is 0.1% in cell culture media. After cells are treated with various concentrations of test compound for 4 hours, cells are lysed using Quantigene 2.0 sample processing kit (#QS0100). C-Myc mRNA is detected using a QuantiGene 2.0 assay kit (#QS0009) with gene-specific probe to human C-Myc (#SA-50182) following the manufacturer's recommendations. Luminescence signals are read on Flexstation II microplate reader (Molecular Devices, Sunnyvale, Calif., USA).
row,IC50 [nM],SMILES
1,253,"Cc1cc(-c2ccc3nnc(Cc4ccccc4)n3c2)cn(C)c1=O [Compound 1, 5-(3-benzyl-[1,2,4]triazolo[4,3-a]pyridin-6-yl)-1,3-dimethyl-pyridin-2-one]"
2,2340,Cc1cc(-c2ccc3nnc(CC4CCOCC4)n3c2)cn(C)c1=O [Compound 2]
3,495,"Cc1cc(-c2ccc3nnc(Cc4ccc(F)cc4)n3c2)cn(C)c1=O [Compound 3, 5-[3-[(4-fluorophenyl)methyl]-[1,2,4]triazolo[4,3-a]pyridin-6-yl]-1,3-dimethyl-pyridin-2-one]"
4,146,"Cc1cc(-c2ccc3nnc(Cc4cccc(C(F)(F)F)c4)n3c2)cn(C)c1=O [Compound 5, 1,3-dimethyl-5-[3-[[3-(trifluoromethyl)phenyl]methyl]-[1,2,4]triazolo[4,3-a]pyridin-6-yl]pyridin-2-one]"
5,461,"Cc1cc(-c2ccc3nnc(Cc4ccccc4F)n3c2)cn(C)c1=O [Compound 6, 5-[3-[(2-fluorophenyl)methyl]-[1,2,4]triazolo[4,3-a]pyridin-6-yl]-1,3-dimethyl-pyridin-2-one]"
6,183,"Cc1cc(-c2ccc3nnc(Cc4cc(F)cc(F)c4)n3c2)cn(C)c1=O [Compound 9, 5-[3-[(3,5-difluorophenyl)methyl]-[1,2,4]triazolo[4,3-a]pyridin-6-yl]-1,3-dimethyl-pyridin-2-one]"
7,484,"Cc1cc(-c2ccc3nnc(Cc4ccc(C(F)(F)F)cc4)n3c2)cn(C)c1=O [Compound 10, 1,3-dimethyl-5-[3-[[4-(trifluoromethyl)phenyl]methyl][1,2,4]triazolo[4,3-a]pyridin-6-yl]pyridin-2-one]"
8,100,"Cc1cc(-c2ccc3nnc([C@H](C)c4ccccc4)n3c2)cn(C)c1=O [Compound 12, 1,3-dimethyl-5-[3-[(1R)-1-phenylethyl]-[1,2,4]triazolo[4,3-a]pyridin-6-yl]pyridin-2-one]"
9,89,"Cc1cc(-c2ccc3nnc(C4(c5cccc(Cl)c5)CC4)n3c2)cn(C)c1=O [Compound 14, 5-[3-[1-(3-chlorophenyl)cyclopropyl]-[1,2,4]triazolo[4,3-a]pyridin-6-yl]-1,3-dimethyl-pyridin-2-one]"
10,250,"Cc1cc(-c2ccc3nnc(C4(c5ccc(Cl)cc5)CC4)n3c2)cn(C)c1=O [Compound 15, 5-[3-[1-(4-chlorophenyl)cyclopropyl]-[1,2,4]triazolo[4,3-a]pyridin-6-yl]-1,3-dimethyl-pyridin-2-one]"
11,590,"Cc1cc(-c2ccc3nnc(C(C)(C)c4ccc(Cl)cc4)n3c2)cn(C)c1=O [Compound 17, 5-[3-[1-(4-chlorophenyl)-1-methyl-ethyl]-[1,2,4]triazolo[4,3-a]pyridin-6-yl]-1,3-dimethyl-pyridin-2-one]"
12,85,"Cc1cc(-c2ccc3nnc(C4(c5ccccc5)CCCC4)n3c2)cn(C)c1=O [Compound 23, 1,3-dimethyl-5-[3-(1-phenylcyclopentyl)-[1,2,4]triazolo[4,3-a]pyridin-6-yl]pyridin-2-one]"
13,90,"Cc1cc(-c2ccc3nnc(C(C)(C)c4cccc(Cl)c4)n3c2)cn(C)c1=O [Compound 24, 5-[3-[1-(3-chlorophenyl)-1-methyl-ethyl]-[1,2,4]triazolo[4,3-a]pyridin-6-yl]-1,3-dimethyl-pyridin-2-one]"

# The next lines start with the compound.
row,SMILES,IC50 [nM]
1,"Cc1cc(-c2ccc3nnc(Cc4ccc(Cl)cc4)n3c2)cn(C)c1=O [Compound 4, 5-[3-[(4-chlorophenyl)methyl]-[1,2,4]triazolo[4,3-a]pyridin-6-yl]-1,3-dimethyl-pyridin-2-one]",156
2,"Cc1cc(-c2ccc3nnc([C@@H](C)c4ccccc4)n3c2)cn(C)c1=O [Compound 7, 1,3-dimethyl-5-[3-[(1 S)-1-phenylethyl]-[1,2,4]triazolo[4,3-a]pyridin-6-yl]pyridin-2-one]",85
3,"Cc1cc(-c2ccc3nnc(CC4CCCCC4)n3c2)cn(C)c1=O [Compound 8, 5-[3-(cyclohexylmethyl)-[1,2,4]triazolo[4,3-a]pyridin-6-yl]-1,3-dimethyl-pyridin-2-one]",158
4,"Cc1cc(-c2ccc3nnc(C4(c5ccccc5)CC4)n3c2)cn(C)c1=O [Compound 11, 1,3-dimethyl-5-[3-(1-phenylcyclopropyl)-[1,2,4]triazolo[4,3-a]pyridin-6-yl]pyridin-2-one]",90
5,"Cc1cc(-c2ccc3nnc(Cc4cccc(F)c4)n3c2)cn(C)c1=O [Compound 13, 5-[3-[(3-fluorophenyl)methyl]-[1,2,4]triazolo[4,3-a]pyridin-6-yl]-1,3-dimethyl-pyridin-2-one]",269
6,"Cc1ccc(C2(c3nnc4ccc(-c5cc(C)c(=O)n(C)c5)cn34)CC2)cc1 [Compound 16, 1,3-dimethyl-5-[3-[1-(p-tolyl)cyclopropyl]-[1,2,4]triazolo[4,3-a]pyridin-6-yl]pyridin-2-one]",226
7,"Cc1cc(-c2ccc3nnc(C4(c5ccc(Cl)cc5)CCC4)n3c2)cn(C)c1=O [Compound 18, 5-[3-[1-(4-chlorophenyl)cyclobutyl]-[1,2,4]triazolo[4,3-a]pyridin-6-yl]-1,3-dimethyl-pyridin-2-one]",563
8,"Cc1cccc(C2(c3nnc4ccc(-c5cc(C)c(=O)n(C)c5)cn34)CC2)c1 [Compound 19, 1,3-dimethyl-5-[3-[1-(m-tolyl)cyclopropyl]-[1,2,4]triazolo[4,3-a]pyridin-6-yl]pyridin-2-one]",88
9,"Cc1cc(-c2ccc3nnc(C4(c5cccc(C(F)(F)F)c5)CC4)n3c2)cn(C)c1=O [Compound 20, 1,3-dimethyl-5-[3-[1-[3-(trifluoromethyl)phenyl]cyclopropyl][1,2,4]-triazolo[4,3-a]pyridin-6-yl]pyridin-2-one]",61
10,"Cc1cc(-c2ccc3nnc(C4(c5cccc(F)c5)CC4)n3c2)cn(C)c1=O [Compound 21, 5-[3-[1-(3-fluorophenyl)cyclopropyl]-[1,2,4]triazolo[4,3-a]pyridin-6-yl]-1,3-dimethyl-pyridin-2-one]",158
11,"Cc1cc(-c2ccc3nnc(C4(c5ccccc5)CCC4)n3c2)cn(C)c1=O [Compound 22, 1,3-dimethyl-5-[3-(1-phenylcyclobutyl)-[1,2,4]triazolo[4,3-a]pyridin-6-yl]pyridin-2-one]",74
12,"Cc1cc(-c2ccc3nnc(C4(c5ccccc5)CCCCC4)n3c2)cn(C)c1=O [Compound 25, 1,3-dimethyl-5-[3-(1-phenylcyclohexyl)-[1,2,4]triazolo[4,3-a]pyridin-6-yl]pyridin-2-one]",54
13,"Cc1cc(-c2ccc3nnc(CCc4ccccc4)n3c2)cn(C)c1=O [Compound 26, 1,3-dimethyl-5-[3-(2-phenylethyl)-[1,2,4]triazolo[4,3-a]pyridin-6-yl]pyridin-2-one]",835
14,"Cc1cc(-c2ccc3nnc(C(C)(C)c4ccccc4)n3c2)cn(C)c1=O [Compound 27, 1,3-dimethyl-5-[3-(1-methyl-1-phenyl-ethyl)-[1,2,4]triazolo[4,3-a]-pyridin-6-yl]pyridin-2-one]",227
